# From patent publication US7589080B2, “β-cyclodextrin compositions, and use to prevent transmission of sexually transmitted diseases” (priority 2000, dated 2009)
# Marks after values point to notes of the source that are not given here.
# Key:
# [1] = system: HIV-infected H9 cells; assay: Syncytium assay with HIV-1 infected cells; type: cell-based; details: for Syncytia (/HPF): with HIV-infected H9 cells
# Experimental: Syncytium assays were carried out essentially as previously described (Hildreth and Orentas, supra, 1989). Briefly, cell lines or PHA blasts were treated with 20 mM 2-OH-βCD in RPMI 1640 or medium alone for 1 hr at 37° C. before washing twice with PBS. The treated cells were then mixed with HIV-1 infected cells, each at density of 2×10^6/ml, in cRPMI and incubated at 37° C. Syncytia were scored and photographed 3 to 6 hr after mixing. For free-virus mediated syncytium assays (“fusion from without”), HIV-1RF from infected PM1 culture supernatants were clarified by 0.45 Tm filtration (p24 concentration greater than 500 ng/ml). 2-OH-βCD-treated and non-treated cell lines were added to the virus preparations and incubated at 37° C. for 3 hr before counting syncytia.
# CD4+SupTl T cells formed numerous large syncytia within 3 hr after the addition of HIV-1MN-infected H9 cells. […] No syncytia were apparent in this culture for more than 15 hr, which can reflect the recovery time for cholesterol in the βCD treated T cells. 2-OH-βCD was washed out after the 1 hr treatment and was not present during the co-cultivation step. As such, the effects are not a result of a steric blockade by 2-OH-βCD, which can bind to cells.
# The effect of βCD treatment on HIV-induced fusion of several other cell lines also was examined. Four CD4+, CXCR4+cell lines, SupT1, H9, PM1, and MT2, were treated with 2-OH-βCD and tested for syncytium formation with HIV-1-infected cells.
# [2] = system: CXCR4; assay: Flow cytometry of CXCR4 surface expression; type: cell-based
# Experimental: Flow cytometry was performed as previously described (Orentas and Hildreth, supra, 1993). Briefly, 2×10^5 2-OH-βCD treated or untreated cells in 100 μl PBS containing 5% normal goat serum (NGS) were added to 100 μl of MAb (1-5 μg) and incubated 30 min on ice. In comparative experiments we prefixed the cells with 2% paraformaldehyde in PBS immediately after 2-OH-βCD treatment. Cells were washed with PBS, resuspended in 100 μl of PBS, 5% NGS containing 2 Tg of FITC conjugated-goat anti-mouse IgG (FITC-GAM) and incubated 1 h on ice. Cells were then washed with PBS and fixed with 2% paraformaldehyde followed by analysis on an EPICS Profile II flow cytometer.
# Cholesterol depletion also promoted CXCR4 down-modulation by MAb-induced internalization. A possible explanation for the inhibition of syncytium formation by cholesterol depletion as described above is that CD4, CRs, or both are lost from the cell surface, for example, by extrusion from the membrane in vesicles after loss of cholesterol, or they could be internalized. To explore these possibilities, βCD treated cells were examined for expression of HIV receptors by flow cytometry. […] In contrast, cell surface expression of CXCR4 was reduced by 50% or more in all of the cells after 2-OH-βCD treatment (Table 1).
# In order to determine whether the loss of CXCR4 expression was due to MAb-induced internalization, cells were fixed with 2% paraformaldehyde in PBS immediately after 2-OH-βCD treatment and before staining with MAbs for flow cytometry.
# [3] = system: HIV-1Ba-L-infected HuPBL; assay: Vaginal transmission of cell-associated HIV-1 in HuPBL-SCID mice; type: in vivo; details: for Number of mice from which HIV-1 was cultured/Number of mice exposed to HIV-1: P < 0.01
# Experimental: The mice were treated subcutaneously with 2.5 mg progestin (Depo-Provera® progestin; Upjohn Pharmaceuticals; Kalamazoo Mich.), on the same day as administration of 5×10^7 unstimulated HuPBMC intraperitoneally in 1 ml PBS. Seven days following progestin treatment and reconstitution of the SCID mice with HuPBMC, the mice were anesthetized and administered pelleted, cell-free HIV-1Ba-L (up to […]), supernatant fluids from HIV-1Ba-L-infected HuPBL, HIV-1Ba-L-infected HuPBL, or HIV-1MN-infected HuPBL (1×10^6/mouse). In the βCD experiments, the mice received 2-OH-βCD (3% w/v in PBS) 5 min prior to receiving 1×10^6 HIV-1Ba-L-infected HuPBL, 1×10^6 HIV-1Ba-L-infected HuPBL pre-incubated with 3% 2-OH-βCD, or 1×10^6 HIV-1Ba-L-infected HuPBL suspended in PBS.
# Mice remained anesthetized for 5 minutes following intravaginal inoculation by pipette. Extreme care was taken to avoid causing trauma to vaginal tissues. Two weeks later the mice were euthanized and peritoneal cells were recovered by lavage with cold PBS. The cells recovered by lavage (of both murine and human origin) were assayed by DNA-PCR for human β-globin to determine the presence of human cells from the peritoneum and for HIV-1 infection by co-culture with PHA-stimulated HuPBMC.
# The ability of a βCD to inhibit vaginal transmission of cell-associated HIV-1 was examined. Reconstituted HuPBL-SCID mice were challenged intravaginally with 1×10^6 PBMC infected with HIVBa-L after receiving progesterone subcutaneously and HuPBMC intraperitoneally. For two of the experimental groups the HIV-1 infected PBMC were pre-incubated in either 20 Tl PBS or 2-OH-βCD (3% w/v) before the mixture was inoculated intravaginally.
substance,measurement,setting,value
2-hydroxypropyl-β-cyclodextrin [2-OH-βCD],Syncytium formation of SupT1 cells with HIV-1MN-infected H9 cells,"[1]; 1 hr treatment, washed out before co-cultivation",completely inhibited
same,Syncytia (/HPF),[1]; H9 cells treated with 20 mM,0 /HPF
same,Syncytia (/HPF),[1]; MT2 cells treated with 20 mM,0 /HPF
same,Syncytia (/HPF),[1]; PM1 cells treated with 20 mM,0 /HPF
same,Syncytium formation with HIV-1-infected cells,"[1]; SupT1, H9, PM1 and MT2 cell lines, in each case",completely blocked
same,Syncytia (/HPF),[1]; SupT1 cells treated with 20 mM,0 /HPF
same,Time without apparent syncytia,[1]; treated SupT1 cells with HIV-1MN-infected H9 cells,more than 15 hr
same,CXCR4 (MCF),"[2]; H9, 20 mM, fixed with 2% paraformaldehyde immediately after treatment",55 MCF
same,CXCR4 (MCF),"[2]; H9 cells, 20 mM, not fixed before staining",6.7 MCF
same,CXCR4 (MCF),"[2]; MT2 cells, 20 mM, not fixed before staining",16.7 MCF
same,CXCR4 (MCF),"[2]; PM1, 20 mM, fixed with 2% paraformaldehyde immediately after treatment",64 MCF
same,CXCR4 (MCF),"[2]; PM1 cells, 20 mM, not fixed before staining",3.1 MCF
same,CXCR4 (MCF),"[2]; SupT1, 20 mM, fixed with 2% paraformaldehyde immediately after treatment",91 MCF
same,CXCR4 (MCF),"[2]; SupT1 cells, 20 mM, not fixed before staining",15.0 MCF
same,Reduction of cell surface expression of CXCR4,"[2]; all of the cells, not fixed before staining",≥ 50%
same,Anti-CXCR4 MAb staining compared to control cells,[2]; cells fixed and permeabilized after the MAb binding step,no significant reduction
same,CXCR4 expression on the cell surface,"[2]; cells fixed immediately after treatment, before MAb staining",remained unchanged
same,Number of mice from which HIV-1 was cultured/Number of mice exposed to HIV-1,[3]; 3% w/v intravaginally 5 min prior to infected HuPBMC challenge,1/11*
same,Number of mice from which HIV-1 was cultured/Number of mice exposed to HIV-1,"[3]; 3% w/v premixed with HIV-infected HuPBMC, intravaginal",2/16*
same,Cell-associated HIV-1 transmission by the vaginal route,"[3]; 3% w/v, even when administered prior to infected PBMC",significantly inhibited
